# Measurements taken from ChEMBL document CHEMBL5620397, “Design, synthesis and biological evaluation of 3-substituted-2-thioxothiazolidin-4-one (rhodanine) derivatives as antitubercular agents against Mycobacterium tuberculosis protein tyrosine phosphatase B” (Eur J Med Chem, 2023).
# Columns and labels:
# [1] = system: Vero; assay: cells; details: Chlorocebus sabaeus, 48 h
# Description: Cytotoxicity against african green monkey Vero cells after 48 hrs by MTT assay
# [2] = Cytotoxicity against mouse J774.G8 cells after 48 hrs by MTT assay; assay type: functional, cell-based; details: J774.G8, 48 h
# [3] = system: Mycobacterium tuberculosis; assay: Antituberculosis activity against Mycobacterium tuberculosis H37Rv in mouse J774A.1 cells assessed as reduction in intracellular bacterial burden at 0.5 ug/ml measured after 21 days by agar plate method; assay type: functional, J774.A1; parameters: scale not given: the % may be the effect or the level left; details: dose 0.5 µg/ml; time 21 day
# [4] = system: Mycobacterium tuberculosis; assay: Antituberculosis activity against Mycobacterium tuberculosis H37Rv by microplate alamar blue assay; assay type: functional
# [5] = Metabolic stability in human liver microsomes assessed as half life preincubated for 5 mins followed by NADPH addition and measured upto 30 mins by LC-MS/MS assay; assay type: ADME, Microsome; details: time < 35 min
# [6] = target: T1, Low molecular weight protein-tyrosine phosphatase A (Mycobacterium tuberculosis, UniProt P9WIA1); assay: Inhibition of Mycobacterium tuberculosis H37Rv ptpA expressed in Escherichia coli BL21(DE3) using pNPP as substrate preincubated for 10 mins followed by substrate addition and measured for 5 mins by spectrophotometer analysis
# T1 sequence (P9WIA1 whole entry): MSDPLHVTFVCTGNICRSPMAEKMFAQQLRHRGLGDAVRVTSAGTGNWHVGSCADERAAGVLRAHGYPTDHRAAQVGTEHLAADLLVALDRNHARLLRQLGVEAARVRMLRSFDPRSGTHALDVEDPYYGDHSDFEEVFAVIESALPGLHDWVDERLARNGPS
# [7] = Permeability in human Caco-2 cells at 3 uM incubated for 90 mins by LC-MS/MS analysis; assay type: ADME, cell-based; details: read-out: permeability
# [8] = Metabolic stability in mouse liver microsomes in absence of NADPH by LC-MS/MS assay; assay type: ADME, Microsome
# [9] = Metabolic stability in mouse liver microsomes assessed as substrate remaining preincubated for 5 mins followed by NADPH addition and measured upto 30 mins by LC-MS/MS assay; assay type: ADME, Microsome; details: time < 35 min, read-out: Stability
# [10] = target: T2, Tyrosine-protein phosphatase non-receptor type 1 (Homo sapiens, UniProt P18031); assay: Inhibition of recombinant human PTP1B using pNPP as substrate preincubated for 5 mins followed by substrate addition and measured for 10 mins; assay type: toxicity
# T2 sequence (P18031 whole entry): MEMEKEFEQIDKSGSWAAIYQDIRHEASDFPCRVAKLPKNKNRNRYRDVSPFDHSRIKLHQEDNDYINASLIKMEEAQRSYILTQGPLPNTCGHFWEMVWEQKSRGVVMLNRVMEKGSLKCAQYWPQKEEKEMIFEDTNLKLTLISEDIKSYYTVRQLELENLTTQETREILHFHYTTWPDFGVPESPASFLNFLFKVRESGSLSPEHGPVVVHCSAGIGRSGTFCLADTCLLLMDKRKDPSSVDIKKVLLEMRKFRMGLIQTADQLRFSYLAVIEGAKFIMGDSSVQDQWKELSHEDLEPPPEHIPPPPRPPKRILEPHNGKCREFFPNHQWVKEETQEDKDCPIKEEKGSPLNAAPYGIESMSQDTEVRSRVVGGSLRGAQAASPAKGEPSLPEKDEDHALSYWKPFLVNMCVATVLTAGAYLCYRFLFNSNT
# [11] = system: Mycobacterium tuberculosis; assay: Antituberculosis activity against Mycobacterium tuberculosis H37Rv in mouse J774A.1 cells assessed as reduction in bacterial burden at 10 ug/ml measured after 21 days in presence of RFP by agar plate method; assay type: functional, J774.A1; parameters: scale not given: the % may be the effect or the level left; details: dose 10 µg/ml; time 21 day
# [12] = system: Mycobacterium tuberculosis; assay: Antituberculosis activity against Mycobacterium tuberculosis H37Rv in mouse J774A.1 cells assessed as reduction in intracellular bacterial burden measured after 21 days by agar plate method; assay type: functional, organism-based; details: J774.A1, dose 1-10 µg/ml, time 21.0 day
# [13] = system: Mycobacterium tuberculosis; assay: Antituberculosis activity against Mycobacterium tuberculosis H37Rv in mouse J774A.1 cells assessed as reduction in intracellular bacterial burden at 10 ug/ml measured after 21 days by agar plate method; assay type: functional, J774.A1; parameters: scale not given: the % may be the effect or the level left; details: dose 10 µg/ml; time 21 day
# [14] = Metabolic stability in human liver microsomes assessed as intrinsic clearance per mg protein preincubated for 5 mins followed by NADPH addition and measured upto 30 mins by LC-MS/MS assay; assay type: ADME, Microsome; details: time < 35 min, read-out: CLH
# [15] = Metabolic stability in human liver microsomes in absence of NADPH by LC-MS/MS assay; assay type: ADME, Microsome
# [16] = target: T3, Triple specificity protein phosphatase PtpB (Mycobacterium tuberculosis (strain ATCC 25618 / H37Rv)) (UniProt I6WXK4); assay: Inhibition of Mycobacterium tuberculosis H37Rv ptpB expressed in Escherichia coli BL21(DE3) at 50 uM using pNPP as substrate preincubated for 10 mins followed by substrate addition and measured for 5 mins by spectrophotometer analysis relative to control; details: time 15.0 min
# T3 sequence (whole entry): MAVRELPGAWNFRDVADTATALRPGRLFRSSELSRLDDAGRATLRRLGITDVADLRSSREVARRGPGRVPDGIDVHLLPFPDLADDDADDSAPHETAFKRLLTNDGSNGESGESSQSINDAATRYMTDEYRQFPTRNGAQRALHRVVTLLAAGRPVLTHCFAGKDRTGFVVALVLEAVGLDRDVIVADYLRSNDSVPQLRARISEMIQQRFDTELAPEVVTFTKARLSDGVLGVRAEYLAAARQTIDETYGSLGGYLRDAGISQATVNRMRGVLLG
# [17] = Metabolic stability in mouse liver microsomes assessed as intrinsic clearance per mg protein preincubated for 5 mins followed by NADPH addition and measured upto 30 mins by LC-MS/MS assay; assay type: ADME, Microsome; details: time < 35 min, read-out: CLH
# [18] = Metabolic stability in human liver microsomes assessed as substrate remaining preincubated for 5 mins followed by NADPH addition and measured upto 30 mins by LC-MS/MS assay; assay type: ADME, Microsome; details: time < 35 min, read-out: Stability
# [19] = Metabolic stability in mouse liver microsomes assessed as half life preincubated for 5 mins followed by NADPH addition and measured upto 30 mins by LC-MS/MS assay; assay type: ADME, Microsome; details: time < 35 min
# [20] = system: PTP1B versus M. tuberculosis ptpB; assay: Selectivity index, ratio of IC50 for human PTP1B to Mycobacterium tuberculosis H37Rv ptpB; assay type: toxicity; details: read-out: Ratio IC50
# [21] = target: T4, Triple specificity protein phosphatase PtpB (Mycobacterium tuberculosis (strain ATCC 25618 / H37Rv), UniProt I6WXK4); assay: Inhibition of Mycobacterium tuberculosis H37Rv ptpB expressed in Escherichia coli BL21(DE3) using pNPP as substrate preincubated for 10 mins followed by substrate addition and measured for 5 mins by spectrophotometer analysis
# T4 sequence (I6WXK4 whole entry): T3 sequence (whole entry)
# [22] = target: T4, Triple specificity protein phosphatase PtpB; assay: Inhibition of Mycobacterium tuberculosis H37Rv ptpB using pNPP as substrate preincubated for 10 mins followed by substrate addition and measured for 5 mins by spectrophotometer analysis
structure (smiles),measurement,setting,value
CO[C@H]1/C=C/O[C@@]2(C)Oc3c(C)c(O)c4c(O)c(c(/C=N/N5CCN(C)CC5)c(O)c4c3C2=O)NC(=O)/C(C)=C\C=C\[C@H](C)[C@H](O)[C@@H](C)[C@@H](O)[C@@H](C)[C@H](OC(C)=O)[C@@H]1C [RIFAMPIN],IC50,[1],> 64 µg/mL
same,IC50,[2],> 64 µg/mL
same,Activity,[3],>85%
same,MIC,[4],0.023 µg/mL
CCCC[C@@H](C(=O)O)N1C(=O)/C(=C/c2ccc(-c3cccc(C(F)(F)F)c3)cc2)SC1=S,half-life,[5],> 1.55 h
same,IC50,[6],4.06 µM
same,"Papp at 1.5 h, 3 µM",[7],16.9 ×10⁻⁶ cm/s
same,Stability,[8],Stable
same,remaining at 0.5 h,[9],101%
same,IC50,[10],4.14 µM
same,IC50,[1],32.2 µg/mL
same,Activity,[11],>95%
same,Activity,[12],Dose-Dependent Effect
same,IC50,[2],50.3 µg/mL
same,Activity,[13],>85%
same,microsomal CLint,[14],< 6.1 µL/min/mg
same,Stability,[15],Stable
same,inhibition,[16],104%
same,microsomal CLint,[17],< 22.1 µL/min/mg
same,MIC,[4],31.1 µg/mL
same,remaining at 0.5 h,[18],95.9%
same,half-life,[19],> 1.55 h
same,selectivity ratio,[20],7
same,IC50,[21],0.64 µM
O=C1NC(=S)NC(=O)C1Cc1cc(Br)ccc1OCc1ccc(Cl)cc1,IC50,[22],22.4 µM
same,MIC,[4],> 32 µg/mL
